# Assay results as given in patent publication US20240408064A1, “RAS INHIBITORS, COMPOSITIONS AND METHODS OF USE THEREOF” (GENETOLEAD INC., priority 2021, published 2024).
# Experiments:
# HRas^G12V [1] = target: T1, HRas^G12V (Homo sapiens (Human), UniProt P01112, G12V); experiment: Overall binding/activity in the various assays (NMR consensus binding)
# Summary of the method: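 Fragments (240 µM each, pooled) screened against 50 µM HRas^G12V in 25 mM sodium phosphate pH 7.4, 150 mM NaCl, 5 mM MgCl2, 1 mM TCEP-d16 by 1H-decoupled 1D 19F NMR. Hits confirmed by ligand- and protein-observed 1D 1H, STD and T2-CPMG (aggregation check); consensus binding ranked, with 15N HSQC for sites and Kd.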
# HRas^G12V [2] = target: T1, HRas^G12V; experiment: 19F T2-CPMG NMR score; assay type: binding
# Summary of the method: (§1)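 In the T2-CPMG experiment, echo spacing was 1 ms and total delays ranged over eight values from 1 to 800 ms. Both scores come from 600 MHz NMR of 50 μM HRas G12V mixed with fragment pools at 240 μM each, in phosphate buffer pH 7.4 with NaCl, MgCl2 and TCEP-d16. Ligand-observed 19F spectra were recorded with 1H decoupling, 64 scans and a 5 s relaxation delay.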
# HRas^G12V [3] = target: T1, HRas^G12V; experiment: 19F DLB (ligand-observed 19F NMR) score; assay type: binding; set-up: scale not given here
# Summary of the method: as §1
# T1 sequence (P01112 1-166 G12V): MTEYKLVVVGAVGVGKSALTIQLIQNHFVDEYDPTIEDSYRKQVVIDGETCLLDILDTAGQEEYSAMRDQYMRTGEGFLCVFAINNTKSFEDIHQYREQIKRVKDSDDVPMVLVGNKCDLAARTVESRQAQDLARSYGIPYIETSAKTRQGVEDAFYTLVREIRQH
Binding to HRas^G12V (in words) (HRas^G12V [1]),19F T2-CPMG Score (HRas^G12V [2]),19F DLB Score (HRas^G12V [3]),SMILES
low or no binding,5.94,1.38,CCOC(=O)C(Cc1ccc(O)cc1)NC(=O)Cc1c[nH]c2cc(F)ccc12 (stereo not drawn) [Compound 10098]
low or no binding,2.25,1.23,"CCOC(=O)[C@@H](NC(=O)Cc1c[nH]c2cc(F)ccc12)C(C)C [Compound 10079, Ethyl (2-(6-fluoro-1H-indol-3-yl)acetyl)valinate]"
low or no binding,−8.2,1.6,CCOC(=O)c1ccc(NC(=O)Cc2c[nH]c3cc(F)ccc23)c(C)c1 [Compound 10034]
low or no binding,2.65,1.06,"O=C(O)C1CCN1C(=O)Cc1c[nH]c2cc(F)ccc12 (stereo not drawn) [Compound 10102, 1-(2-(6-fluoro-1H-indol-3-yl)acetyl) azetidine-2-carboxylic acid]"
low or no binding,2.37,1.5,O=C(O)[C@@H]1CCCCN1C(=O)Cc1c[nH]c2cc(F)ccc12 [Compound 10123]
low or no binding,2.19,1.1,CCOC(=O)[C@H](C)NC(=O)Cc1c[nH]c2cc(F)ccc12 [Compound 10038]
low or no binding,2.5,3,COCCOc1cccc(NC(=O)Cc2c[nH]c3cc(F)ccc23)c1 [compound 10094]
low or no binding,−1.86,2.02,O=C(c1ccc(F)cc1F)N1CCC(c2c[nH]c3cc(F)ccc23)CC1 [Compound 11026]
low or no binding,−2.12,1,O=C(c1ccccc1)N1CCC(c2c[nH]c3cc(F)ccc23)CC1 [Compound 11025]
low or no binding,2.07,1.24,"O=C(O)[C@@H]1COCCN1C(=O)Cc1c[nH]c2cc(F)ccc12 [Compound 10150, (S)-4-(2-(6-fluoro-1H-indol-3-yl)acetyl)morpholine-3-carboxylic acid]"
low or no binding,3.53,1.43,"CC(C)(C(=O)N1CCC1)c1c[nH]c2cc(F)ccc12 [Compound 10049, 1-(azetidin-1-yl)-2-(6-fluoro-1H-indol-3-yl)-2-methylpropan-1-one]"
low or no binding,2.32,1.14,"CC1CN(C(=O)Cc2c[nH]c3cc(F)cnc23)C1 [Compound 10174, 2-(6-fluoro-1H-pyrrolo[3,2-b]pyridin-3-yl)-1-(3-methylazetidin-1-yl) ethan-1-one]"
low or no binding,1.74,0.4,CC(C)(C)OC(=O)n1cc(CC#N)c2ccc(F)cc21 [Compound 11013]
low or no binding,5.59,1.61,CC(=O)NC[C@@H]1CN(C(=O)Cc2c[nH]c3cc(F)ccc23)CCO1 [compound 10164]

# More lines, now with the values behind:
SMILES,Binding to HRas^G12V (in words) (HRas^G12V [1]),19F T2-CPMG Score (HRas^G12V [2]),19F DLB Score (HRas^G12V [3])
"O=C(Cc1c[nH]c2cc(F)ccc12)N1CCN(C(=O)C2CCCO2)CC1 (stereo not drawn) [Compound 10170, 2-(6-fluoro-1H-indol-3-yl)-1-(4-(tetrahydrofuran-2-carbonyl)piperazin-1-yl)ethan-1-one]",low or no binding,6.11,1.52
CN1CCC[C@H]1C(=O)NCCc1c[nH]c2cc(F)ccc12 [Compound 10036],low or no binding,2.32,1.22
CCOC(=O)[C@H]1COCCN1C(=O)Cc1c[nH]c2cc(F)ccc12 [Compound 10121],low or no binding,5.23,1.26
"CC1CN(C(=O)Cc2cc3cc[nH]c3cc2F)C1 [Compound 10176, 2-(6-fluoro-1H-indol-5-yl)-1-(3-methylazetidin-1-yl) ethan-1-one]",low or no binding,0.19,1.01
"O=C(O)C[C@H]1CN(C(=O)Cc2c[nH]c3cc(F)ccc23)CCO1 [Compound 10178, (S)-2-(4-(2-(6-fluoro-1H-indol-3-yl)acetyl)morpholin-2-yl)acetic acid]",low or no binding,2.74,1.11
CC(=O)N1CCC[C@@H](NC(=O)Cc2c[nH]c3cc(F)ccc23)C1 [Compound 10074],low or no binding,3.48,1.23
CN1CCN(C(=O)Cc2c[nH]c3cc(F)ccc23)C[C@@H]1C(=O)O [Compound 10173],low or no binding,3.79,1.33
Fc1ccc2c(C3CCNC3)c[nH]c2c1 (stereo not drawn) [Compound 11007],low or no binding,6.67,1.76
"CN1CCN(C(=O)Cc2c[nH]c3cc(F)ccc23)[C@@H](C(=O)O)C1 [Compound 10165, (R)-1-(2-(6-fluoro-1H-indol-3-yl)acetyl)-4-methylpiperazine-2-carboxylic acid]",low or no binding,5.28,1.58
O=C(Cc1c[nH]c2ccccc12)Nc1ccc(F)cc1 [Compound 10067],low or no binding,2.15,1.2
"COC(=O)[C@H]1CN(C(=O)Cc2c[nH]c3cc(F)ccc23)CCN1C [Compound 10156, Methyl (R)-4-(2-(6-fluoro-1H-indol-3-yl)acetyl)-1-methylpiperazine-2-carboxylate]",low or no binding,3.43,1.42
C[C@@H](NC(=O)Cc1c[nH]c2cc(F)ccc12)C(=O)O [Compound 10083],low or no binding,2.8,1.14
O=S(=O)(NCCc1c[nH]c2cc(F)ccc12)c1ccc(F)cc1 [Compound 10046],low or no binding,0.79,1.02
"O=C(NCCc1c[nH]c2cc(F)ccc12)[C@@H]1CCCO1 [Compound 10023, (S)—N-(2-(6-fluoro-1H-indol-3-yl)ethyl) tetrahydrofuran-2-carboxamide]",low or no binding,6.9,1.53
"CN1CCN(C(=O)Cc2c[nH]c3cc(F)ccc23)C[C@@H]1C(=O)O [Compound 10166, (R)-4-(2-(6-fluoro-1H-indol-3-yl)acetyl)-1-methylpiperazine-2-carboxylic Acid]",low or no binding,7.19,1.55
"O=C(O)[C@H]1CCCN(C(=O)Cc2c[nH]c3cc(F)ccc23)C1 [Compound 10133, (S)-1-(2-(6-fluoro-1H-indol-3-yl)acetyl)piperidine-3-carboxylic acid]",low or no binding,2.85,1.63
